Experimental data published in publication PMC5054432 (Scientific Reports, 2016).
Values joined by “and” are separate entries in the source; they are usually repeats but may differ in a detail not shown here. Equal entries are not always repeated.

Legend:
[1] = biological target: T1, wt GluN1/GluN2B receptors (UniProt P35439+Q01097); assay: MK-801 inhibition kinetics (index of channel open probability), TEVC in oocytes; assay type: cell-based, rat GluN1-1a, mouse GluN2B; details: 50 nM MK-801, normalized to mean τon of wt
T1 sequence (Q01097 27-1482, other chains not shown): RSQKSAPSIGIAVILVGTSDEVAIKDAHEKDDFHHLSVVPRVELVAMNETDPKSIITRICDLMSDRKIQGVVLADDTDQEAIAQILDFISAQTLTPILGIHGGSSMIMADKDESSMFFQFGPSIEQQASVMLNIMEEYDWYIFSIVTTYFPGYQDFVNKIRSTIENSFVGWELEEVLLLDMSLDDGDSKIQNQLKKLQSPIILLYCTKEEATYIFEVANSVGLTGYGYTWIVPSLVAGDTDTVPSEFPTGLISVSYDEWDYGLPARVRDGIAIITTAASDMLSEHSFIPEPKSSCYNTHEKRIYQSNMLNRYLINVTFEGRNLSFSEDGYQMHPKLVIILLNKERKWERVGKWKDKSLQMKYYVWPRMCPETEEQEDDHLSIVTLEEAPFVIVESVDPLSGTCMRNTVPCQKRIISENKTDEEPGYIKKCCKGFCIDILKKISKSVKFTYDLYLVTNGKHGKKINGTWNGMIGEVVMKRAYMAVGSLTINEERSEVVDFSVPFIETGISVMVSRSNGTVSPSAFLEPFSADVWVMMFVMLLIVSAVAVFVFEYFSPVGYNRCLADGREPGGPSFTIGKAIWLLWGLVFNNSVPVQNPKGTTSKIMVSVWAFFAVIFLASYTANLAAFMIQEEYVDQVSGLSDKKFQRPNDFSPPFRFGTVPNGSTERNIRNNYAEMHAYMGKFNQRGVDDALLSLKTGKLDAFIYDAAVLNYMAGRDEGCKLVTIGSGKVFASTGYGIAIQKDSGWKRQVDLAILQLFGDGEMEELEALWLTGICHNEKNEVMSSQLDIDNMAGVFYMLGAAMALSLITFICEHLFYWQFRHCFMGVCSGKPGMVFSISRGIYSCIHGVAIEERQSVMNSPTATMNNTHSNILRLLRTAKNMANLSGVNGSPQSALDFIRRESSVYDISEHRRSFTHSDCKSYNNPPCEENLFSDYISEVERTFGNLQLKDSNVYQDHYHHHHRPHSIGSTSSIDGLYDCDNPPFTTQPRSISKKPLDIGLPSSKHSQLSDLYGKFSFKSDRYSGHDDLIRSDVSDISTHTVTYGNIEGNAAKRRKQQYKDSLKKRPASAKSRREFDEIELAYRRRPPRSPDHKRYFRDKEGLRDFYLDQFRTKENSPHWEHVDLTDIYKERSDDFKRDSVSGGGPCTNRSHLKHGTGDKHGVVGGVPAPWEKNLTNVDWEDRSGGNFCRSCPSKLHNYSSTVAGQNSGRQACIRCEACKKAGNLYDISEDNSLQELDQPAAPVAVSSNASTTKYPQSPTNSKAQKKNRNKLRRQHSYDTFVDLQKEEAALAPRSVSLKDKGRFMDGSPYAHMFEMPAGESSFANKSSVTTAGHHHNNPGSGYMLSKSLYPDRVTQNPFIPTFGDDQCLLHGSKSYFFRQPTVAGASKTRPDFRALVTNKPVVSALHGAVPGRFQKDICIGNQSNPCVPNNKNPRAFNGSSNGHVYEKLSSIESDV
Description: (§1) To analyze the gating property change, we assessed channel maximal open probability (Po) using MK-801, a specific open-pore blocker of NMDARs[25]. Because the rate at which MK-801 inhibits the macroscopic NMDAR responses is proportional to the level of channel activity (i.e. Po), this MK-801 assay is classically used to index NMDAR channel activity.
(§2) For all experiments, the standard external solutions contained: 100 mM NaCl, […] BaCl2, and 5 mM HEPES, pH adjusted to 7.3 with KOH. […] Currents were recorded and measured at a holding potential of −60 mV at room temperature.
(§3) The measurements at 30 μM were corrected by multiply with a correcting value to remove the pore blocking effect at −60 mV[49]. Zinc was prepared at 100 mM ZnCl2 stock (in 1% HCl). In all zero-Zn^2+ control solutions, diethylenetriamine-pentaacetic acid (DTPA, 10 μM) was added to chelate trace Zn^2+ and other heavy metals. Spermine potentiation was analyzed as described earlier. Solutions of 200 μM spermine (Sigma-Aldrich) were made by directly diluting the powder into the standard agonist solution. Spermine sensitivity was assessed at pH 6.5 in order to maximize the spermine-induced potentiation. Experiments with MK-801 were performed as described previously. […] Each τon was then normalized to the mean τon of wt receptors measured the same day. […]

[2] = biological target: T2, GluN1/GluN2B-F114AzF receptors (Rattus norvegicus (GluN1-1a); Mus musculus (GluN2B), UniProt P35439+Q01097); assay: as above; assay type: cell-based, rat GluN1-1a, mouse GluN2B; parameters: expressed in transfected cells; host or cells: Xenopus laevis oocytes co-injected with GluN1, GluN2B amber mutant, Yam suppressor tRNA and AzF-RS, incubated with 1 mM AzF; details: 50 nM MK-801, normalized to mean τon of wt
T2 sequence (Q01097 27-1482, other chains not shown): as above
Description: as §1, §2, §3

[3] = biological target: T1, wt GluN1/GluN2B receptors; assay: Ifenprodil and Zn2+ inhibition dose-response, TEVC in Xenopus laevis oocytes; assay type: cell-based, rat GluN1-1a, mouse GluN2B
Description: (§4) Oocytes were prepared and injected as described previously. Recombinant NMDARs were expressed in Xenopus laevis oocytes after nuclear injection of 36 nl of a mixture cDNAs encoding various GluN1 and GluN2 subunits (ratio 1:1, 10 ng/μl for GluN2A and 30 ng/μl for GluN2B). For Uaa incorporation, oocytes were co-injected with a 36 nl mixture of cDNAs containing GluN1, GluN2, Yam, and aaRS as follows, unless otherwise indicated in the text: GluN1-wt (60 ng/μl), GluN2A-F115AzF (60 ng/μl), Yam (5 ng/μl), AzF-RS (2.5 ng/μl); or, GluN1-wt (80 ng/μl), GluN2B-F114AzF (80 ng/μl), Yam (10 ng/μl), AzF-RS (5 ng/μl). After injection, oocytes were incubated at 19 °C in a Barth solution (88 mM NaCl, 1 mM KCl, 0.33 mM Ca(NO3)2, 0.41 mM CaCl2, 0.82 mM MgSO4, 2.4 mM NaHCO3, 10 mM HEPES, pH adjusted to 7.6 with NaOH) supplemented with gentamicin sulfate ([…]) and D-APV (50 μM). AzF was dissolved with sonication in Barth solution (stock solution at 10 mM), and diluted (1 mM) for oocytes incubation.
as §2
(§5) The measurements at 30 μM were corrected by multiply with a correcting value to remove the pore blocking effect at −60 mV[49]. Zinc was prepared at 100 mM ZnCl2 stock (in 1% HCl). In all zero-Zn^2+ control solutions, diethylenetriamine-pentaacetic acid (DTPA, 10 μM) was added to chelate trace Zn^2+ and other heavy metals. Spermine potentiation was analyzed as described earlier. Solutions of 200 μM spermine (Sigma-Aldrich) were made by directly diluting the powder into the standard agonist solution. Spermine sensitivity was assessed at pH 6.5 in order to maximize the spermine-induced potentiation. Experiments with MK-801 were performed as described previously. MK-801 solutions (10–50 nM) were prepared by dilution of stock solution (50 μM) into agonist containing solution[4]. MK-801 time constants of inhibition (τon) were obtained by fitting currents with a single-exponential component to a time window corresponding to 10–90% of maximum inhibition. Each τon was then normalized to the mean τon of wt receptors measured the same day.
(§6) For all functional recordings in Xenopus oocytes, online UV light treatment with PE-2 light source (CoolLED) using a 365 nm filter channeled through optical fiber was directly applied to the dark hemisphere of the oocytes in the recording chamber. […] For measurements in presence of agonists and allosteric modulators, the UV application duration was ~3 min. In the absence of agonist, the UV application duration was ~5 min.

[4] = biological target: T2, GluN1/GluN2B-F114AzF receptors; assay: as above; assay type: cell-based; details: for IC50 / Zn2+ Hill coefficient nH: F114AzF mutant
Description: as §4, §2, §5, §6

[5] = biological target: T2, GluN1/GluN2B-F114AzF receptors; assay: UV-induced current potentiation in the presence of allosteric modulators, TEVC in oocytes; assay type: cell-based, rat GluN1-1a, mouse GluN2B; parameters: expressed in transfected cells; host or cells: Xenopus laevis oocytes co-injected with GluN1, GluN2B amber mutant, Yam suppressor tRNA and AzF-RS, incubated with 1 mM AzF
Description: To evaluate whether AzF photo-activation in GluN2B produces functional changes, we applied a time-resolved assay[10] by combining online application of UV light and simultaneously recording of agonist-induced currents using TEVC. Current after UV illumination (Iuv) were compared to currents before UV illumination (Io) and yielded the relative current changes (Iuv/Io).
To understand how the NTD dimer interfacial contact influences allosteric modulation, we have quantified UV-induced potentiation in the presence of different modulators, including a GluN2B specific positive allosteric modulator spermine.
as §2, §5, §6

[6] = biological target: T2, GluN1/GluN2B-F114AzF receptors; details: 200 μM spermine, pH 6.5, without UV
Description: For all experiments, the standard external solutions contained: 100 mM NaCl, 300 mM BaCl2, and 5 mM HEPES, pH adjusted to 7.3 with KOH. […] Currents were recorded and measured at a holding potential of −60 mV at room temperature.
The measurements at 30 μM were corrected by multiply with a correcting value to remove the pore blocking effect at −60 mV[49]. Zinc was prepared at 100 mM ZnCl2 stock (in 1% HCl). In all zero-Zn^2+ control solutions, diethylenetriamine-pentaacetic acid (DTPA, 10 μM) was added to chelate trace Zn^2+ and other heavy metals[25]. […] Experiments with MK-801 were performed as described previously. MK-801 solutions (10–50 nM) were prepared by dilution of stock solution (50 μM) into agonist containing solution[4]. MK-801 time constants of inhibition (τon) were obtained by fitting currents with a single-exponential component to a time window corresponding to 10–90% of maximum inhibition. Each τon was then normalized to the mean τon of wt receptors measured the same day.

wild-type GluN1 (rat) = wild-type GluN1 (rat) (UniProt P35439)

Compound: C[C@]12N[C@H](Cc3ccccc31)c1ccccc12 [MK-801, (+)-MK-801]
- Relative MK-801 τon ([1]; wild-type with UV): 0.90 ± 0.06
- Relative MK-801 τon ([1]; wild-type without UV): 1.00
- Relative MK-801 τon ([2]; F114AzF mutant with UV): 0.80 ± 0.07
- Relative MK-801 τon ([2]; F114AzF mutant without UV): 1.81 ± 0.47

Compound: [Cl-].[Cl-].[Zn+2] [Zn^2+, ZnCl2]
- IC50 ([3]; after UV): 720 ± 120 nM
- Zn2+ Hill coefficient nH ([3]; after UV): 0.78
- IC50 ([3]; before UV): 580 ± 130 nM
- Zn2+ Hill coefficient nH ([3]; before UV): 0.59
- Maximal inhibition (%) ([4]; 0.1uM inhibitor, +UV): 16 ± 7%
- Maximal inhibition (%) ([4]; 0.1uM inhibitor, -UV): 25 ± 8%
- Maximal inhibition (%) ([4]; 1uM inhibitor, +UV): 35 ± 4%
- Maximal inhibition (%) ([4]; 1uM inhibitor, -UV): 49 ± 11%
- Maximal inhibition (%) ([4]; 10uM inhibitor, +UV): 83 ± 1%
- Maximal inhibition (%) ([4]; 10uM inhibitor, -UV): 87 ± 4%
- Change in Zn2+ maximal inhibition ([4]; F114AzF mutant before and after UV versus wt): no change
- IC50 ([4]; after UV): 1720 ± 600 nM
- Zn2+ Hill coefficient nH ([4]; after UV): 0.77
- IC50 ([4]; before UV): 780 ± 250 nM
- Zn2+ Hill coefficient nH ([4]; before UV): 0.62
- Relative current (I+uv/I0) after wash-off of modulator ([5]; 10 μM Zn2+ with co-agonists, +UV (~3 min, 365 nm)): 1.40 ± 0.43
- Relative current (I/I0) after wash-off of modulator ([5]; 10 μM Zn2+ with co-agonists, -UV): 0.92 ± 0.29

Compound: CC(C(O)c1ccc(O)cc1)N1CCC(Cc2ccccc2)CC1 (centres unmarked) [ifenprodil]
- Ifenprodil Hill coefficient nH [3]: 1.14
- Ifenprodil maximal inhibition [4]: 77% and 67%
- Maximal inhibition (%) ([4]; 0.1 µM): 16 ± 3% and 9 ± 4 %
- Maximal inhibition (%) ([4]; 1 µM): 54 ± 4% and 35 ± 4 %
- Maximal inhibition (%) ([4]; 10 µM): 77 ± 3% and 55 ± 3 %
- Effect on UV potentiation ([5]; in the presence of ifenprodil): completely abolished

Compound: NCCCNCCCCNCCCN [spermine]
- Spermine potentiation of receptor activation [6]: 4.6 fold
- Relative current (I+uv/I0) ([5]; 200 μM spermine, pH 6.5, +UV (~3 min, 365 nm)): 2.80 ± 0.64
- Relative current (I/I0) ([5]; 200 μM spermine, pH 6.5, -UV): 0.85 ± 0.10
- τon of UV induced additional potentiation ([5]; in the presence of 200 μM spermine, pH 6.5): 50.8 s

Compound: GluN2B-F114AzF (from UniProt Q01097 27-1482) (receptor)
- relative current Iuv/Io after UV illumination of maximally activated receptors (TEVC in oocytes, UV-induced potentiation) (wild-type GluN1 (rat)): 1.97
